# Experimental data reported in PubChem BioAssay (NCI).
# Values joined by “and” are separate entries in the source; they are usually repeats but may differ in a detail not shown here. Identical values can stand only once.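 All cell lines were grown in 96-well plates and treated with compound for 48 hours. GI50 = concentration required for 50% inhibition of growth. TGI denotes the concentration required for complete inhibition of growth.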
# Assays:
# Test in all cases: NCI tumour cell line growth inhibition, 48 h
# SK-OV-3 ovarian = system: SK-OV-3 ovarian
# EKVX NSCLC = system: EKVX NSCLC
# MOLT-4 leukemia = system: MOLT-4 leukemia
# RPMI-8226 leukemia = system: RPMI-8226 leukemia
# HL-60(TB) leukemia = system: HL-60(TB) leukemia
# CAKI-1 renal = system: CAKI-1 renal
# NCI/ADR-RES ovarian = system: NCI/ADR-RES ovarian
# RXF 393 renal = system: RXF 393 renal
Structure (SMILES),GI50 (SK-OV-3 ovarian),TGI (SK-OV-3 ovarian),GI50 (EKVX NSCLC),TGI (EKVX NSCLC),GI50 (MOLT-4 leukemia),TGI (MOLT-4 leukemia),GI50 (RPMI-8226 leukemia),TGI (RPMI-8226 leukemia),GI50 (HL-60(TB) leukemia),TGI (HL-60(TB) leukemia),GI50 (CAKI-1 renal),TGI (CAKI-1 renal),GI50 (NCI/ADR-RES ovarian),TGI (NCI/ADR-RES ovarian),TGI (RXF 393 renal),GI50 (RXF 393 renal)
Nc1nc(N)c2nc(CNc3ccc(C(=O)NC(CCC(=O)O)C(=O)O)cc3)cnc2n1 (stereo not drawn),0.0755 µM and < 0.01 µM,> 100 µM,4.69 µM,> 100 µM,0.0375 µM and < 0.0131 µM,> 100 µM,0.0519 µM and 0.0313 µM,> 100 µM,< 0.01 µM,> 100 µM,< 0.01 µM,> 100 µM,< 0.01 µM,> 100 µM,> 100 µM,
Nc1nc(-c2ccccn2)c(-c2ccc3ncccc3n2)s1,> 25 µM,> 25 µM,> 25 µM,> 25 µM,> 25 µM,> 25 µM,> 25 µM,> 25 µM,> 25 µM,> 25 µM,> 25 µM,> 25 µM,> 25 µM,> 25 µM,> 25 µM,> 25 µM
CCc1ccc2cc3c(ccc4ccccc43)c3c2c1CC3,> 100 µM,> 100 µM,,,> 100 µM,> 100 µM,> 100 µM,> 100 µM,,,> 100 µM,> 100 µM,> 100 µM,> 100 µM,> 100 µM,> 100 µM
FC(F)(F)c1ccc(-c2cnc(-c3nn[nH]n3)nc2NC2CCCCCC2)cc1,> 10 µM,> 10 µM,,,> 10 µM,> 10 µM,> 10 µM,> 10 µM,> 10 µM,> 10 µM,> 10 µM,> 10 µM,> 10 µM,> 10 µM,> 10 µM,> 10 µM
CCCCCCCCCCCCCCCCCCCCCCC(=O)N[C@H]1CCc2cc(OC)c(OC)c(OC)c2-c2ccc(SC)c(=O)cc21,,53.6 µM,,> 100 µM,,> 100 µM,,,,48.9 µM,,> 100 µM,,,,
CN(C)c1ccc(-c2cc(-c3cccc(NS(C)(=O)=O)c3)nc(N)c2C#N)cc1,0.033 µM,1.74 µM,0.133 µM,> 63.8 µM,0.0822 µM,> 58.4 µM,0.0416 µM,2.55 µM,0.0362 µM,0.411 µM,0.0348 µM,15.1 µM,,,0.0565 µM,0.0183 µM
C=C(CN1CCc2ccccc2C1)c1ccc(C(=O)Nc2cccc(N)c2)cc1,29.5 µM,73.5 µM,9.48 µM,56.2 µM,6 µM,28.6 µM,16.3 µM,> 100 µM,,,16.3 µM,45.1 µM,21.7 µM,76.8 µM,43.7 µM,19.1 µM
Cc1cc2c(=O)cc(-c3ccncc3)oc2c(C(N)=O)c1C,,> 100 µM,,> 100 µM,,> 100 µM,,> 100 µM,,> 100 µM,,,,,> 100 µM,
O=C(CNC(=O)c1cccc2ccccc12)Nc1ccccc1Oc1ccc(O)cc1,1.59 µM,> 25 µM,1.17 µM,> 25 µM,1.21 µM,> 25 µM,0.97 µM,10.4 µM,0.705 µM,2.06 µM,,,1.19 µM,> 25 µM,1.72 µM,0.5 µM
CC(=O)Nc1ccc(S(=O)(=O)N2C(=O)CCC2C(=O)Nc2ccccc2)cc1 (stereo not drawn),2.87 µM,18.8 µM,,,1.96 µM,14.5 µM,0.83 µM,15 µM,1.64 µM,15.2 µM,0.46 µM,17.5 µM,1.61 µM,29.1 µM,13.9 µM,3.48 µM
C=CN(C(=O)N1CCN(c2cc3c(cc2F)c(=O)c(C(=O)O)cn3C2CC2)CC1)c1nc(-c2ccc(C)cc2)cs1,,,3.61 µM,> 100 µM,,,0.53 µM,> 100 µM,,,,,2.67 µM,7.24 µM,> 100 µM,4 µM
O=C(c1ccco1)c1c(C(F)(F)F)n([O-])c2cc(Cl)c(Cl)cc2[n+]1=O,2.95 µM,5.83 µM,0.887 µM,1.86 µM,0.0591 µM,1.41 µM,0.196 µM,3.29 µM,0.0812 µM,0.18 µM,0.434 µM,1.24 µM,0.845 µM,1.78 µM,,
Cc1cc(C)c(CNC(=O)c2cc(Cl)c3c(c2C)O[C@@](C)(C2CCC(N(C)C)CC2)O3)c(=O)[nH]1 (stereo partly drawn),,,> 100 µM,> 100 µM,58.6 µM,> 100 µM,38 µM,> 100 µM,61.5 µM,> 100 µM,93.1 µM,> 100 µM,> 100 µM,> 100 µM,71.5 µM,15.9 µM
Nc1ncnc2c1ncn2C1SC(CO)C(O)C1O (stereo not drawn),17.3 µM,59.6 µM,,,> 100 µM,> 100 µM,44.1 µM,> 100 µM,30.3 µM,76.2 µM,29.5 µM,> 100 µM,13.5 µM,52.1 µM,> 100 µM,80.6 µM
O=C(N=Nc1c(O)[nH]c2c(Cl)cc(Cl)cc12)C(=O)Nc1cccc(C(F)(F)F)c1,,> 100 µM,,> 100 µM,,> 100 µM,,,,> 100 µM,,> 100 µM,,> 100 µM,> 100 µM,
O=C(/C=C/c1c[nH]c2ccccc12)c1ccccc1O,,33 µM,,33 µM,,37 µM,,62.1 µM,,> 100 µM,,,,,,
N/C(=N\O)c1cn(C2OC(CO)C(O)C2O)c2ncnc(N)c12 (stereo not drawn),0.0884 µM,1.76 µM,,,0.277 µM,1.64 µM,0.162 µM,0.625 µM,0.117 µM,0.858 µM,0.132 µM,13.1 µM,0.262 µM,,0.722 µM,0.169 µM
Cc1n[nH]c(C)c1-c1c(C)n[nH]c1C,,,1.93 µM,4.96 µM,2.24 µM,> 27.3 µM,1.87 µM,7.01 µM,2.26 µM,6.95 µM,1.54 µM,3.13 µM,2.19 µM,6.16 µM,3.07 µM,1.52 µM
